# Source: patent publication US12616649B2, “Composition containing plant extracts” (LG HOUSEHOLD & HEALTH CARE LTD., priority 2020, dated 2026)
# Tests used:
# [1] = test system: B-16 mouse melanoma cells; assay: Effect of reducing total amount of melanin (whitening); type: cell-based; details: control group
# Description: After a sample was added to the culture medium of B-16 mouse melanoma cells, a whitening effect was confirmed by measuring the total amount of melanin at the cellular level (Lotan R., Lotan D. Cancer Res. 40:3345-3350, 1980). Before the experiment, toxicity evaluation was performed on mouse melanoma cells to select a concentration without toxicity, and then whitening evaluation was performed at the concentration.
# As a control, arbutin was added to the culture medium at a concentration of 200 ppm. B-16 melanoma cells treated with the sample or arbutin were cultured for 3 days.
# Thereafter, the cells were removed from a culture vessel and centrifuged, 1 ml of sodium hydroxide solution (1N concentration) was added to the centrifuged cell pellet, heating was performed at 80° C. for 10 minutes to dissolve melanin, and using a spectrophotometer, absorbance at 400 nm was measured to measure the amount of melanin produced.
# The amount of melanin was determined according to absorbance per unit cell number (1×10^6 cells). In addition, based on a non-addition control group, the relative total amount of melanin in the experimental group treated with each sample was calculated as inhibition rate (%), and the results are summarized in the table below.
# RAW264.7 cells = assay: NO generation inhibitory effect (GRIESS method, LPS stimulus); type: cell-based, mouse
# Description: To check the anti-inflammatory effect and skin trouble alleviation effect of each sample, an experiment was conducted to evaluate inhibition of nitric oxide (NO) formation by the GRIESS method using the RAW264.7 cell line (ATCC number: CRL-2278).
# Specifically, RAW264.7 cells, which are macrophages of mice, were subcultured several times, and the cells were seeded at a cell density of 3×10^5 cells per well in a 24-well plate, followed by cell culture for 24 hours. At this time, as a positive control, the cells were treated with L-NG-monomethylarginine (L-NMMA), a NO-production inhibitor, to a final concentration of 5 ppm and cultured for 30 minutes. Then, the cells were treated with lipopolysaccharide (LPS) as a stimulus at a concentration of 1 μg/ml and cultured for 24 hours. 100 μl of the supernatant was transferred to a 96-well plate, 100 μl of a GRIESS solution was added thereto, and then reaction was performed at room temperature for 10 minutes. Then, absorbance at 540 nm was measured, and the NO inhibitory effect of each sample was determined based on the absorbance, and the results are shown in the table below.
# [2] = Antioxidant effect, free radical scavenging (DPPH); type: physicochemical; details: control group
# Description: To confirm antioxidant activity, free radical scavenging activity was measured using DPPH. DPPH was purchased from Sigma Co., Ltd. (USA). First, a standard DPPH ethanol solution with a concentration of […] (0.06 mg/ml) was prepared. Then, ethanol was added to each extract and ascorbic acid as a reference material, which is known as an antioxidant, to prepare samples at a concentration of 0.1%, and serial dilution was performed. Then, the sample and the standard DPPH solution were added in the same ratio and stirred, followed by reaction at 37° C. for 30 minutes. Then, absorbance was measured at 517 nm. At this time, addition of ethanol instead of the sample was used as a control. Free radical scavenging ability was measured by calculating IC50, which is half maximal inhibitory concentration, and the results are shown in the following table. IC50 is a general method of expressing free radical scavenging ability as the concentration of ascorbic acid and extract required to remove 50% of free radicals of a non-addition control group.
# human dermal fibroblasts = assay: Hyaluronic acid synthesis enhancement (Hyaluronan ELISA); type: cell-based; details: 10 ppb
# Description: Human-derived fibroblasts (human dermal fibroblasts) cultured in a DMEM culture medium containing 10% fetal bovine serum at a cell density of 1×10^5 cells/mL, and 500 μl of the cell culture medium was added to each well of a 24-well plate. After incubation for 18 hours, the samples were diluted with a DMEM culture medium without fetal bovine serum, and each sample was added at the following concentrations. […] After incubation for 24 hours, the cell culture medium was recovered, and the concentration of hyaluronic acid was measured using a Hyaluronan ELISA kit (R&D Systems).
# Aspergillus niger = assay: Antibacterial effect, MIC, fungi (serial dilution); type: cell-based
# Description: MICs were measured for fermented cultures of Staphylococcus aureus and Aspergillus niger.
# The serial dilution method was used for both bacteria, and the MIC of fermentation culture was confirmed by visually comparing the turbidity between wells after the incubation was completed.
# The minimum inhibitory concentration of each extract was expressed as % (w/v), and MIC (%) in each table means % (w/v) unless otherwise stated.
# P. aeruginosa = assay: MIC of the hexanediol control, bacteria as named in the tables; type: cell-based; details: control group
# [3] = test system: human-derived fibroblasts; assay: Promotion of type I collagen synthesis (PICP EIA kit); type: cell-based; details: 10 ppb
# Description: Each sample was added to the culture medium of human-derived fibroblasts to confirm the effect of promoting synthesis of type I collagen at the cellular level. Measurement of synthesized collagen was quantified using a Procollagen Type I C-Peptide Enzyme Immuno Assay KIT (PICP ETA kit). To measure the amount of synthesized collagen, each sample was added to a fibroblast culture medium (DMEM culture medium). After cell culture for 48 hours, the culture medium was taken, and the degree of synthesis of type I collagen at each concentration was measured at 450 nm using a spectrophotometer using the PICP ETA kit.
# For comparison of the effects, a collagen synthesis level was measured in the same manner for the culture medium of untreated fibroblasts (negative control) and a sample (positive control) to which TGFb was added to a final concentration of 10 ppb. A collagen production increase rate was calculated as the ratio of relative collagen production to the negative control group, and the results are shown in the table below.
compound,measurement,setting,value
OC[C@H]1O[C@@H](Oc2ccc(O)cc2)[C@H](O)[C@@H](O)[C@@H]1O [Aibutin],Whitening Melanin content (%),[1]; Arbutin 200 ppm,35%
"OC[C@H]1O[C@@H](Oc2ccc(O)cc2)[C@H](O)[C@@H](O)[C@@H]1O [Arbutin, arbutin]",Whitening Melanin content (%),[1]; 200 ppm,35%
"CNC(=N)NCCC[C@H](N)C(=O)O [L-NMMA, L-NG-monomethylarginine]",Anti-inflammation Inhibition of NO production (%),"RAW264.7 cells; control group, 5 ppm",28%
same,Anti-inflammation Inhibition of NO production (%),"RAW264.7 cells; control group, L-NMMA 5 ppm",L-NMMA (5 ppm) 28%
same,Anti-inflammation Inhibition of NO production (%),"RAW264.7 cells; positive control, 5 ppm",28%
"O=C1O[C@H]([C@@H](O)CO)C(O)=C1O [Vitamin C, ascorbic acid]",Anti-oxidation IC50,[2],7.5 ppm
same,Anti-oxidation IC50,[2]; DPPH,7.5 ppm
"EGF: epidermal growth factor, known to promote hyaluronic acid production",Moisturizing HA synthesis (%),human dermal fibroblasts; control group,320%
same,Moisturizing HA synthesis (%),human dermal fibroblasts; positive control,320%
Hexanediol,Anti-bacteria MIC (%) Fungi,"Aspergillus niger; % (w/v), A. niger, 30° C., 48 hours",Fungi: A. niger 1%
same,Anti-bacteria MIC (%) Fungi,Aspergillus niger; Fungi,Fungi: A. niger 1%
same,Anti-bacteria MIC (%) Fungi,Aspergillus niger; Fungi (A. niger),Fungi: A. niger 1%
same,Anti-bacteria MIC (%) Fungi,Aspergillus niger; Fungi (A.niger),Fungi: A.niger 1%
same,Anti-bacteria MIC (%) Fungi,Aspergillus niger; Fungi (control line: A. niger),Fungi: A. niger 1%
same,Anti-bacteria MIC (%) Fungi: A. niger,"Aspergillus niger; control group, A. niger",Fungi: A. niger 1%
same,Anti-bacteria MIC (%) Bacteria: P. aeruginosa,P. aeruginosa,Bacteria: P. aeruginosa 2%
same,Anti-bacteria MIC (%) Bacteria: P. aeruginosa,P. aeruginosa; P. aeruginosa,Bacteria: P. aeruginosa 2%
same,Anti-bacteria MIC (%) Bacteria: P. aeruginosa,P. aeruginosa; Bacteria: P. aeruginosa,Bacteria: P. aeruginosa 2%
same,Anti-bacteria MIC Bacteria: P. aeruginosa,P. aeruginosa; Bacteria: P. aeruginosa,Bacteria: P. aeruginosa 2%
"TGFb: positive control for collagen synthesis, 10 ppb",Anti-wrinkle Collagen synthesis (% of control),[3]; control group,25%
same,Anti-wrinkle Collagen synthesis (% of control),[3]; positive control,25%
